Assays:
[1] = target: G protein-coupled receptor kinase 4 (Homo sapiens) (UniProt P32298); assay: Selectivity interaction (KinomeScan (DiscoverX)) EUB0000666a GRK4; conditions: at 10 µM
[2] = target: T1, Atypical kinase COQ8B, mitochondrial (Homo sapiens) (UniProt Q96D53); conditions: at 10 µM
T1 sequence (whole entry): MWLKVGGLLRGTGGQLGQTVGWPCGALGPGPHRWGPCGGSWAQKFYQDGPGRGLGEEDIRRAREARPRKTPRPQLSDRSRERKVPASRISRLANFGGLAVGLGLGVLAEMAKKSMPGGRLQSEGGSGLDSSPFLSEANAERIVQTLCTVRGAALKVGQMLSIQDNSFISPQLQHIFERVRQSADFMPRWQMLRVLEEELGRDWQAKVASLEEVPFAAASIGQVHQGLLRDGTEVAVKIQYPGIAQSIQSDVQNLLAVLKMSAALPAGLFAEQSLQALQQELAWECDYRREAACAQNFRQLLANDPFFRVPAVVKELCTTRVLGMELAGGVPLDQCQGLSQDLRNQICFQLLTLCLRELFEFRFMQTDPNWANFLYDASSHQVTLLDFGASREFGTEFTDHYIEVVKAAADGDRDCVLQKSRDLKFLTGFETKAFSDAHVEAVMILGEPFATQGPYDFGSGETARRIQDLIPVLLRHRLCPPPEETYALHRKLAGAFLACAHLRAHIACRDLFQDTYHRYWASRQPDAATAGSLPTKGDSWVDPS

[3] = target: Epithelial discoidin domain-containing receptor 1 (Homo sapiens) (UniProt Q08345); assay: Selectivity interaction (Kinase panel (Invitrogen)) EUB0000639a DDR1; conditions: at 200 nM
Chain of Epithelial discoidin domain-containing receptor 1 (Homo sapiens) (Q08345 whole entry, the tested form may be a part): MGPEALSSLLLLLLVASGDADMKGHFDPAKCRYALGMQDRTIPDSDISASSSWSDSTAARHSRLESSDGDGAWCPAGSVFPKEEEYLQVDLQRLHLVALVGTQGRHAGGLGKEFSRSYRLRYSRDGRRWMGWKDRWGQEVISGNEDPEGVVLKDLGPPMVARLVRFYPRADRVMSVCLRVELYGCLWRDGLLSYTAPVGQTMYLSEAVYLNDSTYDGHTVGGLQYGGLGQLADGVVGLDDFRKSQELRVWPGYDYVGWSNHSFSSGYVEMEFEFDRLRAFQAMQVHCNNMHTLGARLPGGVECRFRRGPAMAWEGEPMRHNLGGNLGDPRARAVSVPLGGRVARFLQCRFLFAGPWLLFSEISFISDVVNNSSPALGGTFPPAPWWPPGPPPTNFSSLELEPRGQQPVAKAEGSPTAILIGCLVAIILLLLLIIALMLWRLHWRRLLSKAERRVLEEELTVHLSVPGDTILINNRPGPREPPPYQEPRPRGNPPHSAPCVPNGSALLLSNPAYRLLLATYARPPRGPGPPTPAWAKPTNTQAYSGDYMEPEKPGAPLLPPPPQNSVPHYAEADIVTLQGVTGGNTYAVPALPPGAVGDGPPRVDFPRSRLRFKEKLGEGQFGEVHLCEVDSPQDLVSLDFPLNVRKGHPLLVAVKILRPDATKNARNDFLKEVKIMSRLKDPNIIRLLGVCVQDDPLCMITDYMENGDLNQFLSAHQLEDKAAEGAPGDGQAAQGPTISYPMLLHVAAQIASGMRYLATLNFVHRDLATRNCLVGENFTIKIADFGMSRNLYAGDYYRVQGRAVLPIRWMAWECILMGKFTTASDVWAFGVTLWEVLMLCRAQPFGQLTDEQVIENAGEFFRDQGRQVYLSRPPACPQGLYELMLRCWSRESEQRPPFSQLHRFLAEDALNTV

[4] = target: Non-receptor tyrosine-protein kinase TYK2 (Homo sapiens, UniProt P29597); assay: Selectivity interaction (ActivX KiNativ screen (kinase selectivity in THP-1 cell lysates)) EUB0000639a TYK2; type: subcellular; conditions: lysate, at 0.04 µM
Chain of Non-receptor tyrosine-protein kinase TYK2 (P29597 whole entry): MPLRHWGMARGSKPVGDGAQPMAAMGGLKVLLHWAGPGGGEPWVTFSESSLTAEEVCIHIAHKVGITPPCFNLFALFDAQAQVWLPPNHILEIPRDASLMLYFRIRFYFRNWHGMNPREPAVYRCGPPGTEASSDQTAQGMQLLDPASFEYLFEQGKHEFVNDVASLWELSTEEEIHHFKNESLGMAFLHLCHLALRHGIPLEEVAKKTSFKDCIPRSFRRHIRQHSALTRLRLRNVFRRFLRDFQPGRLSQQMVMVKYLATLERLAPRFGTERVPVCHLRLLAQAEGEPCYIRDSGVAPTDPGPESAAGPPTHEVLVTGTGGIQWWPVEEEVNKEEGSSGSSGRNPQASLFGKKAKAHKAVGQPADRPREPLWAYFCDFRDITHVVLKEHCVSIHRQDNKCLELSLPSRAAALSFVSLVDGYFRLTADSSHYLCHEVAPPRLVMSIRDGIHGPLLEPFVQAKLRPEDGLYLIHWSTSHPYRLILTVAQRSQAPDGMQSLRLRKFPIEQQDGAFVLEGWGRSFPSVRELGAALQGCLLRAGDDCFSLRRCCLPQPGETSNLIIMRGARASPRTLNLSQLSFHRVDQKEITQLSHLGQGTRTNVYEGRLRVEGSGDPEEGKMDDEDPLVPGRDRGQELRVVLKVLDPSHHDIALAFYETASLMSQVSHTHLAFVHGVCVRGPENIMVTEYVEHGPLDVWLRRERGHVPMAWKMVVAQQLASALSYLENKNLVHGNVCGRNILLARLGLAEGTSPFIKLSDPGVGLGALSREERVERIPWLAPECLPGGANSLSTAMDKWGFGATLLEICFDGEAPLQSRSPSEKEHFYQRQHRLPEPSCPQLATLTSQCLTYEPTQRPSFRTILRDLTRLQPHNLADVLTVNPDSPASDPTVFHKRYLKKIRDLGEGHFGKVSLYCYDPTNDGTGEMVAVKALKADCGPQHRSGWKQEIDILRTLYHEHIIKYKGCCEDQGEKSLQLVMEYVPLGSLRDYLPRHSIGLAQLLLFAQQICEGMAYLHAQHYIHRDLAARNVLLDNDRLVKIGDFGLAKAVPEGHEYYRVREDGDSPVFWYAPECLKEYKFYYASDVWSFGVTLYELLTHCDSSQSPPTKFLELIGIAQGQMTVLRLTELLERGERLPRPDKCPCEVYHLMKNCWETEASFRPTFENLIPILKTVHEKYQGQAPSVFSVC

[5] = target: Casein kinase II subunit alpha' (Homo sapiens) (UniProt P19784); assay: Selectivity interaction (KinomeScan (DiscoverX)) EUB0000595a CSNK2A2; conditions: at 10 µM
Chain of Casein kinase II subunit alpha' (Homo sapiens) (P19784 whole entry, looked up): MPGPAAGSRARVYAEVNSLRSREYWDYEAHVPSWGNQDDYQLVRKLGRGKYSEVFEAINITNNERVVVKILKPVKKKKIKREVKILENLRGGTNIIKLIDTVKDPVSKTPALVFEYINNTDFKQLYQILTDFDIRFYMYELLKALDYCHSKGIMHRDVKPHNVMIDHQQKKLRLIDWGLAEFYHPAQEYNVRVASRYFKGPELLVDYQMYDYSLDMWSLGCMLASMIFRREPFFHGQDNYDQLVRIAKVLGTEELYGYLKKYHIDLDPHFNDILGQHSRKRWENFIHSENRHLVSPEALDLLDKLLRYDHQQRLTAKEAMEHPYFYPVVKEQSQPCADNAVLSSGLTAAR

[6] = target: T2, Serine/threonine-protein kinase PLK4 (Homo sapiens) (UniProt O00444); assay: Selectivity interaction (KinomeScan (DiscoverX)) EUB0000595a PLK4; conditions: at 10 µM
T2 sequence (whole entry): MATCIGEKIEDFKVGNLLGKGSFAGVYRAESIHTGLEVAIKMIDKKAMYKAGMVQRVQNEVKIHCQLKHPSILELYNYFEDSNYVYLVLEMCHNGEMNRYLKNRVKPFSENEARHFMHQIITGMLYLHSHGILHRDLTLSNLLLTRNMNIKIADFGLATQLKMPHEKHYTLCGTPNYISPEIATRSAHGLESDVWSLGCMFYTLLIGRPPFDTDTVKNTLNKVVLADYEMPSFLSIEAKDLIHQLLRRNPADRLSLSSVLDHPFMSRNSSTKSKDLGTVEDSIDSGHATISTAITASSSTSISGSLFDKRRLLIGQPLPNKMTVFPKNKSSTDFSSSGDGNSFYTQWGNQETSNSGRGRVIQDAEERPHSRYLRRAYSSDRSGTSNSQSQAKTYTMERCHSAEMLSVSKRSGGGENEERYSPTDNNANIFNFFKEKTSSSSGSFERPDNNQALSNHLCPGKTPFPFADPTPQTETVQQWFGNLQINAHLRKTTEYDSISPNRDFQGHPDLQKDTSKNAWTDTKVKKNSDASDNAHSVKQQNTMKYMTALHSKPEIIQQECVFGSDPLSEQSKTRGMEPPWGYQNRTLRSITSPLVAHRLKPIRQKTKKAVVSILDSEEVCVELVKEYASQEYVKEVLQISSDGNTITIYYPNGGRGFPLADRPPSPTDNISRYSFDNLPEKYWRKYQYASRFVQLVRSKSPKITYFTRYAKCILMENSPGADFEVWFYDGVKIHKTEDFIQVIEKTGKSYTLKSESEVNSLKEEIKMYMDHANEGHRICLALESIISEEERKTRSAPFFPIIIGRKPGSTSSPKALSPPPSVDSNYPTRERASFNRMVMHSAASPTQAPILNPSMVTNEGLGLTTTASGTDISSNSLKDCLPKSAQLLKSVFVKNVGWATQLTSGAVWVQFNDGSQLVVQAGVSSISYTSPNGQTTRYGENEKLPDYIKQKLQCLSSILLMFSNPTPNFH

[7] = system: Epidermal growth factor receptor (Homo sapiens), P00533 [UNDEFINED MUTATION]; conditions: at 10 µM
Chain of Epidermal growth factor receptor (Homo sapiens), P00533 [UNDEFINED MUTATION] (P00533 whole entry, looked up, change not shown, canonical isoform): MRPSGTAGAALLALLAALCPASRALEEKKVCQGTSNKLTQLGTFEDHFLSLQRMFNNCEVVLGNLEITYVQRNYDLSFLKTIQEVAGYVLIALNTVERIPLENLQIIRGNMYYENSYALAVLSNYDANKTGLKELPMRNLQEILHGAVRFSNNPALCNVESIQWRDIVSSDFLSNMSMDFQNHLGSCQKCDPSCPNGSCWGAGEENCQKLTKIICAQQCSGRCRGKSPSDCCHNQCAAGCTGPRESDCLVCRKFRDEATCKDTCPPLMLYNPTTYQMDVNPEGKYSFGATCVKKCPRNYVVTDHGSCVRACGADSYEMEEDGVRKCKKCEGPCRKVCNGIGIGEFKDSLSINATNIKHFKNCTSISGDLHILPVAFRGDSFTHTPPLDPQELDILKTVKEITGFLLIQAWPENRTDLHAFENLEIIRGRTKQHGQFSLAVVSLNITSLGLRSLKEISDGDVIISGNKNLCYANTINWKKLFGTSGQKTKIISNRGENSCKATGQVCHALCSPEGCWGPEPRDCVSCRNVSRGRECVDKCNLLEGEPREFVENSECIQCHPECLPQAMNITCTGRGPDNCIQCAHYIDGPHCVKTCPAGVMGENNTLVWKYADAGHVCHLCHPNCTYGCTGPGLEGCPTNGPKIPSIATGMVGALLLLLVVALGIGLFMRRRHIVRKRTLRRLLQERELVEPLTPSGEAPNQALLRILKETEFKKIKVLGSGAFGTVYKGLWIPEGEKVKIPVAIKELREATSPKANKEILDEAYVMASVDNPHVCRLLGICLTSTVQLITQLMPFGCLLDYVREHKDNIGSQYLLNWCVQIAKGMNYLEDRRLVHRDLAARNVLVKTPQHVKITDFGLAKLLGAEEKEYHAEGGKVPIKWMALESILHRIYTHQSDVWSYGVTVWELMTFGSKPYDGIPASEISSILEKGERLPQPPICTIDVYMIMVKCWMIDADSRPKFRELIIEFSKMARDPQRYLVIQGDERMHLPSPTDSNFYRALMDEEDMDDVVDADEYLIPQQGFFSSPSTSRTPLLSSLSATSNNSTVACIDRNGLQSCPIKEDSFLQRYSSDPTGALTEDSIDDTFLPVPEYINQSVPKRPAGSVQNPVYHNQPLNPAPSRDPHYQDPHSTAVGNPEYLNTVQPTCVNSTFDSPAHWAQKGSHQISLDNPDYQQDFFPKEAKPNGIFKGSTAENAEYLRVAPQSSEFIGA

[8] = target: T3, Phosphorylase b kinase gamma catalytic chain, liver/testis isoform (Homo sapiens) (UniProt P15735); assay: Selectivity interaction (Upstate Kinase Profiler service (Millipore)) EUB0000056c PHKG2; conditions: at 1 µM
T3 sequence (whole entry): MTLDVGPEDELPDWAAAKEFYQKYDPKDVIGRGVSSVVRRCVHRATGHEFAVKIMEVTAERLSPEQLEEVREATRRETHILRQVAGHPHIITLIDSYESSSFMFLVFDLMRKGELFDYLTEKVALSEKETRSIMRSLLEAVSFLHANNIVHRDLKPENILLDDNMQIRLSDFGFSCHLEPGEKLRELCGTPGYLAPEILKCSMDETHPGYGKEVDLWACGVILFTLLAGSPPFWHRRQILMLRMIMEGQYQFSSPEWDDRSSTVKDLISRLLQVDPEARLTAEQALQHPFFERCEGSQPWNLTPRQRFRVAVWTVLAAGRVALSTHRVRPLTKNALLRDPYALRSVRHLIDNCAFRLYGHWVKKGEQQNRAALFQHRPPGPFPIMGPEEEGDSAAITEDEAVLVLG

[9] = target: T4, Mitogen-activated protein kinase 12 (Homo sapiens) (UniProt P53778); assay: Selectivity interaction (KinomeScan (DiscoverX)) EUB0000655a MAPK12; conditions: at 10 µM
T4 sequence (whole entry): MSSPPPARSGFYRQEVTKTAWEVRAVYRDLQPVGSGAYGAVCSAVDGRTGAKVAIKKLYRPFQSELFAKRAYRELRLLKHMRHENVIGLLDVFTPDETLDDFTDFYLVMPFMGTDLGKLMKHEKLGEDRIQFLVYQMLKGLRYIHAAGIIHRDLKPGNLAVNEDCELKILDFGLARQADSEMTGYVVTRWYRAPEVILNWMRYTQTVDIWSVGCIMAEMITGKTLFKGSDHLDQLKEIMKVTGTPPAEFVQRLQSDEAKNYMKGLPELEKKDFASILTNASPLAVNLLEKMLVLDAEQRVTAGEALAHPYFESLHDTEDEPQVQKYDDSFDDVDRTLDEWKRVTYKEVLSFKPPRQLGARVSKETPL

[10] = target: Mitogen-activated protein kinase kinase kinase 20 (Homo sapiens) (UniProt Q9NYL2); assay: Selectivity interaction (LanthaScreen Eu Kinase Binding Assay) EUB0001632a MAP3K20; conditions: at 10 µM
Chain of Mitogen-activated protein kinase kinase kinase 20 (Homo sapiens) (Q9NYL2 2-800 limits assumed): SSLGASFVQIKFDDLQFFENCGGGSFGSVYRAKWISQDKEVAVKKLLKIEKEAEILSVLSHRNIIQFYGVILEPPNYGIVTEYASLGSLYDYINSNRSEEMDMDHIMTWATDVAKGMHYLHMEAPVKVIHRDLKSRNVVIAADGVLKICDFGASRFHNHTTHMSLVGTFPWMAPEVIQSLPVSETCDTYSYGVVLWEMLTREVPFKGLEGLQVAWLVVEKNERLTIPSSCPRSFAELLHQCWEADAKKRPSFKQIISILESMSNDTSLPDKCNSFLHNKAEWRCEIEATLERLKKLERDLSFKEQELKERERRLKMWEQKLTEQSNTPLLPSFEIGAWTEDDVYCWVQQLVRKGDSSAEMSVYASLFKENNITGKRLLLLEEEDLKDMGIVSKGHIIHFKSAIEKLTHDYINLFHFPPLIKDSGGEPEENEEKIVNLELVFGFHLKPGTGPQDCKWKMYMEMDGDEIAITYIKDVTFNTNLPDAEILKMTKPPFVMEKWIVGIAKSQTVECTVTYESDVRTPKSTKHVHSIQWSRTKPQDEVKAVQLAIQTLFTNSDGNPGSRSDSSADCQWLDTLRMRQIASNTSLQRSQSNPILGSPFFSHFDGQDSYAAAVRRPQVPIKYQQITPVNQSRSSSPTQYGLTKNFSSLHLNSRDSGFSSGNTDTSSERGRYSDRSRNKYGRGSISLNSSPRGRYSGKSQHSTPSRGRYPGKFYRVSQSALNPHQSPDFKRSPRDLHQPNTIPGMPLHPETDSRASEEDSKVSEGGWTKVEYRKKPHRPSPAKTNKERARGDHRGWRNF

Chain of G protein-coupled receptor kinase 4 (Homo sapiens) (P32298 whole entry, looked up): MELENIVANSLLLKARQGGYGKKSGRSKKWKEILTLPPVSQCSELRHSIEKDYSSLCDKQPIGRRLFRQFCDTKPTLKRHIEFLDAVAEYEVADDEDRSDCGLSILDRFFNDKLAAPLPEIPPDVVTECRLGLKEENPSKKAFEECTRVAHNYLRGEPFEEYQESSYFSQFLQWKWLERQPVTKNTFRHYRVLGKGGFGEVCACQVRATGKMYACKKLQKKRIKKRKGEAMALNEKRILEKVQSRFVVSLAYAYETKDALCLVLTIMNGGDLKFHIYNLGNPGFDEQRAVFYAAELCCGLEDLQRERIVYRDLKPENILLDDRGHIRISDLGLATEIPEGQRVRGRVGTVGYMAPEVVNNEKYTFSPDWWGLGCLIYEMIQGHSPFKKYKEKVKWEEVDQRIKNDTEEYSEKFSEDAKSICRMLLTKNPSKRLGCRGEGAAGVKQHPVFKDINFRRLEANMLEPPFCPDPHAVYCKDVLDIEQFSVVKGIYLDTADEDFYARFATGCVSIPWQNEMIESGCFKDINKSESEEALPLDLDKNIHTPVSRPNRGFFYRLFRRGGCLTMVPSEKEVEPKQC

O=C(NOC[C@H](O)CO)c1ccc(F)c(F)c1Nc1ccc(I)cc1F
% of control [1]: 100%

CCN(CC)CCCCNc1ncc2cc(-c3cc(OC)cc(OC)c3)c(NC(=O)NC(C)(C)C)nc2n1
% of control [2]: 100%

CC[C@@H]1[C@H](F)C(=O)N[C@@H]1COc1nccc2cc(C(N)=O)c(OC)cc12 [ZIMLOVISERTIB]
% of inhibition [3]: -1.2% | % of inhibition [4]: 6.4%

COCC(=O)NC/C=C/c1ccc2ncnc(Nc3ccc(Oc4ccc(C)nc4)c(C)c3)c2c1 [CP-724714]
% of control [5]: 100% | % of control [6]: 74%

Cc1cc([C@@H](C)Nc2ccccc2C(=O)O)c2nc(N3CCOCC3)cc(=O)n2c1 [AZD-6482]
% of control [7]: 100%

Cc1ccc(-c2ccc3c(ccc4sc5c(c43)NC[C@@H](C)NC5=O)n2)cn1
% of inhibition [8]: 58%

CN(C)CCOc1ccc(-c2nc(-c3ccncc3)c(-c3ccc4c(c3)CC/C4=N\O)[nH]2)cc1
% of control [9]: 77%

Cn1cc(-n2cnc3c(NCc4nc5cc(Cl)c(Cl)cc5[nH]4)nc(N4CCOCC4)nc32)cn1
% of inhibition [10]: -9.9%

From ChEMBL document CHEMBL5465560, “Selectivity Literature for EUbOPEN Chemogenomic Library” (2024)
